Measured values as given in US10758534B2 (Vertex Pharmaceuticals Incorporated, priority 2014, dated 2020).

Target: T1, F508del (Homo sapiens, UniProt P13569, DEL508-508)
T1 construct: expressed in transfected cells
Assay: Protocol 1: membrane potential optical assay (FLIPR III, voltage sensing dye), identification of potentiator compounds
Assay type: cell-based
Details: Table 3, compounds of Table 1
Outline: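 NIH 3T3 fibroblasts stably expressing F508del were cultured at 27° C for 24 hrs for temperature correction, then treated with compounds or DMSO and loaded with a voltage-sensing redistribution dye. Forskolin added with a Cl⁻ gradient activated the channel; membrane-potential fluorescence on FLIPR III reported increased gating.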

T1 sequence (P13569 with tags, fused parts or gaps DEL508-508): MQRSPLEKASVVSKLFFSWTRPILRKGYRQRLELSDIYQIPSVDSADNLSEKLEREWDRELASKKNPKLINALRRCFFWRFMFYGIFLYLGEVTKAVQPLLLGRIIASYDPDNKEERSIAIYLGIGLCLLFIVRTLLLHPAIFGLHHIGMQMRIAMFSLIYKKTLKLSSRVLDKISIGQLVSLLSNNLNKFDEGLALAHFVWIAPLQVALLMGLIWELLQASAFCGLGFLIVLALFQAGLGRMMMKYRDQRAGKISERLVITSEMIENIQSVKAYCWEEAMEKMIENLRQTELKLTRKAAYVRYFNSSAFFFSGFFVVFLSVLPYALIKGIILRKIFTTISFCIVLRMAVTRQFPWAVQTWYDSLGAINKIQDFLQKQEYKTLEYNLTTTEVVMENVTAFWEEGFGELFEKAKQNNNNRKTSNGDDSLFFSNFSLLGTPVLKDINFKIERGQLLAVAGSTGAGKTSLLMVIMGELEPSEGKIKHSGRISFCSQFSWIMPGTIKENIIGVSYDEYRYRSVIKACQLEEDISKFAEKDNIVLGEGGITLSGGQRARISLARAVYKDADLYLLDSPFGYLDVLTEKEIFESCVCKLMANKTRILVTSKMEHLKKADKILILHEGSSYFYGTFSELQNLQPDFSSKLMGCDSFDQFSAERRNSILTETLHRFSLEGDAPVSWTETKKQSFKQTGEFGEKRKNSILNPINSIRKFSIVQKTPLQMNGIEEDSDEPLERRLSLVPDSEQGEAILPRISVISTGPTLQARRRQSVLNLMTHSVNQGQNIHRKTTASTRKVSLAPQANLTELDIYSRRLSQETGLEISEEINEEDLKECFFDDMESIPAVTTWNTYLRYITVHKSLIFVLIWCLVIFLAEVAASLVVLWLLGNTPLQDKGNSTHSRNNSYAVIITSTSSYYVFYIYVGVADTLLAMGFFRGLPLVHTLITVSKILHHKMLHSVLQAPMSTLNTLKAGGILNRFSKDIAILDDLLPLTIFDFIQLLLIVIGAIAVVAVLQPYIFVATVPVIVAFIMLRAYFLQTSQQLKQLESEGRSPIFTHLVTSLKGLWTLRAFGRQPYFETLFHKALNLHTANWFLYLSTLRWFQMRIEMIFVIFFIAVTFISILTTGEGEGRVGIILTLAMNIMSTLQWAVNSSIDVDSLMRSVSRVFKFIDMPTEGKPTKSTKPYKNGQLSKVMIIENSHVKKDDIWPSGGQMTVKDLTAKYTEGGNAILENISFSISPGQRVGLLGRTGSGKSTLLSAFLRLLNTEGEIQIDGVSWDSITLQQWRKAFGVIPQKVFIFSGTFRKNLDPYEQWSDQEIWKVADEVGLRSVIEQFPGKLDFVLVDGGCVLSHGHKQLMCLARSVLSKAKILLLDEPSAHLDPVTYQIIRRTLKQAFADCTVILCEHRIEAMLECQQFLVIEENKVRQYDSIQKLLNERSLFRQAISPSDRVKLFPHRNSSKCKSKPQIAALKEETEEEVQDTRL

Compound	EC30
CC(C)c1ccc(-c2ccc(C(=O)NS(=O)(=O)c3cccc(N)n3)c(N3[C@H](C)CC[C@@H]3C)n2)cc1 [Compound 1343, N-[(6-amino-2-pyridyl)sulfonyl]-2-[(2S,5R)-2,5-dimethylpyrrolidin-1-yl]-6-(4-isopropylphenyl)pyridine-3-carboxamide]	+++ (“+++” means <3 uM)
Cc1cc(C)c(Oc2nc(-c3ccc(O)cc3)ccc2C(=O)NS(=O)(=O)c2cccc(N)n2)c(C)c1 [Compound 1344, N-[(6-amino-2-pyridyl)sulfo]-6-(4-hydroxyphenyl)-2-(2,4,6-trimethylphenoxy)pyridine-3-carboxamide]	++ (“++” means between 3 uM and 10 uM)
CCN(CC)c1cccc(-c2ccc(C(=O)NS(=O)(=O)c3cccc(N)n3)c(N3CC(C)CC3(C)C)n2)n1 (centres unmarked) [Compound 1345, N-[(6-amino-2-pyridyl)sulfonyl]-6-[6-(diethylamino)-2-pyridyl]-2-(2,2,4-trimethylpyrrolidin-1-yl)pyridine-3-carboxamide]	+++ (“+++” means <3 uM)
CCOc1cccc2c1CN(Cc1c(C)cc(C)cc1C)C2(C)C(=O)NS(=O)(=O)c1cccc(N)n1 (centres unmarked) [Compound 1346, N-[(6-amino-2-pyridyl)sulfonyl]-4-ethoxy-1-methyl-2-[(2,4,6-trimethylphenyl)methyl]isoindoline-1-carboxamide]	+++ (“+++” means <3 uM)
COc1ncccc1S(=O)(=O)NC(=O)c1cc2c(nc1Oc1ccc(C)cc1C)C(C)(C)CCC2 [Compound 1347, 2-(2,4-dimethylphenoxy)-N-[(2-methoxy-3-pyridyl)sulfonyl]-8,8-dimethyl-6,7-dihydro-5H-quinoline-3-carboxamide]	+++ (“+++” means <3 uM)
CC(C)COc1cc(F)cc(-c2ccc(C(=O)NS(=O)(=O)c3ccn[nH]3)c(N3C(C)CC(c4ccccc4)C3C)n2)c1 (centres unmarked) [Compound 1348, 2-(2,5-dimethyl-3-phenyl-pyrrolidin-1-yl)-6-(3-fluoro-5-isobutoxy-phenyl)-N-(1H-pyrazol-5-ylsulfonyl)pyridine-3-carboxamide]	+++ (“+++” means <3 uM)
CC(C)(C)c1ccc(C(=O)NS(=O)(=O)c2cccc(N)n2)c(OC2CC3CCC2C3)n1 (centres unmarked) [Compound 1349, N-[(6-amino-2-pyridyl)sulfonyl]-6-tert-butyl-2-norbornan-2-yloxy-pyridine-3-carboxamide]	+++ (“+++” means <3 uM)
Cc1ccc(F)c(-c2nc(C(C)(C)C)ccc2C(=O)NS(=O)(=O)c2cccc(N)c2)c1 [Compound 1350, N-(3-aminophenyl)sulfonyl-6-tert-butyl-2-(2-fluoro-5-methyl-phenyl)pyridine-3-carboxamide]	+ (“+” means greater than 10 uM)
CC(C)COc1cc(F)cc(-c2ccc(C(=O)NS(=O)(=O)c3ccccc3)c(N3C[C@@H](C)CC3(C)C)n2)c1 [Compound 1356, N-(benzenesulfonyl)-6-(3-fluoro-5-isobutoxy-phenyl)-2-[(4S)-2,2,4-trimethylpyrrolidin-1-yl]pyridine-3-carboxamide]	+++ (“+++” means <3 uM)
CC(C)COc1cc(F)cc(-c2ccc(C(=O)NS(=O)(=O)N3CC[C@@H](N)C3)c(N3C[C@@H](C)CC3(C)C)n2)c1 [Compound 1360, N-[(3R)-3-aminopyrrolidin-1-yl]sulfonyl-6-(3-fluoro-5-isobutoxy-phenyl)-2-[(4S)-2,2,4-trimethylpyrrolidin-1-yl]pyridine-3-carboxamide]	+++ (“+++” means <3 uM)
CC(C)COc1cc(F)cc(-c2ccc(C(=O)NS(=O)(=O)c3cccc(N)n3)c(OC(C)CC3CCOCC3)n2)c1 (centres unmarked) [Compound 1361, N-[(6-amino-2-pyridyl)sulfonyl]-6-(3-fluoro-5-isobutoxy-phenyl)-2-(1-methyl-2-tetrahydropyran-4-yl-ethoxy)pyridine-3-carboxamide]	+++ (“+++” means <3 uM)
CC(C)COc1cc(F)cc(-c2ccc(C(=O)NS(=O)(=O)c3cccc(N)n3)c(N3C[C@@H](F)C[C@H]3C)n2)c1 [Compound 1362, N-[(6-amino-2-pyridyl)sulfonyl]-6-(3-fluoro-5-isobutoxy-phenyl)-2-[(2R,4S)-4-fluoro-2-methyl-pyrrolidin-1-yl]pyridine-3-carboxamide]	+++ (“+++” means <3 uM)
CC(C)COc1cc(F)cc(-c2ccc(C(=O)NS(=O)(=O)c3cccc(N)n3)c(OC(C)(C)Cc3ccccc3)n2)c1 [Compound 1365, N-[(6-amino-2-pyridyl)sulfonyl]-2-(1,1-dimethyl-2-phenyl-ethoxy)-6-(3-fluoro-5-isobutoxy-phenyl)pyridine-3-carboxamide]	+++ (“+++” means <3 uM)
CC(C)COc1cc(F)cc(-c2ccc(C(=O)NS(=O)(=O)c3cccc(N)n3)c(C3=CC(C)(C)OC(C)(C)C3)n2)c1 [Compound 1368, N-[(6-amino-2-pyridyl)sulfonyl]-6-(3-fluoro-5-isobutoxy-phenyl)-2-(2,2,6,6-tetramethyl-3H-pyran-4-yl)pyridine-3-carboxamide]	+++ (“+++” means <3 uM)

Continued, values first:

EC30	Compound
++ (“++” means between 3 uM and 10 uM)	Cc1ccc(-c2nc(-c3cc(F)cc(OC(C)C)c3)ccc2C(=O)NS(=O)(=O)c2nccnc2N)cc1 [Compound 1351, N-(3-aminopyrazin-2-yl)sulfonyl-6-(3-fluoro-5-isopropoxy-phenyl)-2-(p-tolyl)pyridine-3-carboxamide]
+++ (“+++” means <3 uM)	CC1CN(c2nc(-c3ccc(OC(C)C)nc3)ccc2C(=O)NS(=O)(=O)c2ccn[nH]2)C(C)(C)C1 (centres unmarked) [Compound 1352, 6-(6-isopropoxy-3-pyridyl)-N-(1H-pyrazol-5-ylsulfonyl)-2-(2,2,4-trimethylpyrrolidin-1-yl)pyridine-3-carboxamide]
+ (“+” means greater than 10 uM)	Cc1cc(C)c(Oc2nc(-c3ccccn3)ccc2C(=O)NS(=O)(=O)c2cc[nH]n2)c(C)c1 [Compound 1353, N-(1H-pyrazol-3-ylsulfonyl)-6-(2-pyridyl)-2-(2,4,6-trimethylphenoxy)pyridine-3-carboxamide]
+++ (“+++” means <3 uM)	CC(C)Oc1ccc(-c2ccc(C(=O)NS(=O)(=O)c3cccc(N)n3)c(N3CCC[C@H]3C)n2)cn1 [Compound 1354, N-[(6-amino-2-pyridyl)sulfonyl]-6-(6-isopropoxy-3-pyridyl)-2-[(2R)-2-methylpyrrolidin-1-yl]pyridine-3-carboxamide]
++ (“++” means between 3 uM and 10 uM)	Cc1ccc(-c2nc(C(C)(C)C)ccc2C(=O)NS(=O)(=O)c2ccc(C)cn2)cc1 [Compound 1355, 6-tert-butyl-N-[(5-methyl-2-pyridyl)sulfonyl]-2-(p-tolyl)pyridine-3-carboxamide]
+++ (“+++” means <3 uM)	Cc1cc(C)c(Oc2nc(C3CCCCC3)ccc2C(=O)NS(=O)(=O)c2ccc[nH]c2=O)c(C)c1 [Compound 1357, 6-cyclohexyl-N-[(2-oxo-1H-pyridin-3-yl)sulfonyl]-2-(2,4,6-trimethylphenoxy)pyridine-3-carboxamide]
+++ (“+++” means <3 uM)	Cc1cccc(C)c1Cn1nc(C(C)(C)C)cc1C(=O)NS(=O)(=O)c1cccc2cc[nH]c12 [Compound 1358, 5-tert-butyl-2-[(2,6-dimethylphenyl)methyl]-N-(1H-indol-7-ylsulfonyl)pyrazole-3-carboxamide]
+++ (“+++” means <3 uM)	CCOc1nc(-c2ccc(C(=O)NS(=O)(=O)c3cccc(N)n3)c(N3CC(C)CC3(C)C)n2)ccc1C (centres unmarked) [Compound 1363, N-[(6-amino-2-pyridyl)sulfonyl]-6-(6-ethoxy-5-methyl-2-pyridyl)-2-(2,2,4-trimethylpyrrolidin-1-yl)pyridine-3-carboxamide]
+++ (“+++” means <3 uM)	CC1CN(c2nc(C(C)(C)C)c(-c3ccccc3)cc2C(=O)NS(=O)(=O)c2cccc(N)n2)C(C)(C)C1 (centres unmarked) [Compound 1364, N-[(6-amino-2-pyridyl)sulfonyl]-6-tert-butyl-5-phenyl-2-(2,2,4-trimethylpyrrolidin-1-yl)pyridine-3-carboxamide]
+++ (“+++” means <3 uM)	Cc1cc(C)c(Oc2nc(C3=CCN(C(=O)OC(C)C)CC3)ccc2C(=O)NS(=O)(=O)c2cccc(N)n2)c(C)c1 [Compound 1366, isopropyl 4-[5-[(6-amino-2-pyridyl)sulfonylcarbamoyl]-6-(2,4,6-trimethylphenoxy)-2-pyridyl]-3,6-dihydro-2H-pyridine-1-carboxylate]
+++ (“+++” means <3 uM)	CCCc1ccc(S(=O)(=O)NC(=O)C2(C)c3cccc(OCC)c3CN2Cc2c(C)cc(C)cc2C)cc1N (centres unmarked) [Compound 1367, N-(3-amino-4-propyl-phenyl)sulfonyl-4-ethoxy-1-methyl-2-[(2,4,6-trimethylphenyl)methyl]isoindoline-1-carboxamide]
+++ (“+++” means <3 uM)	C[C@@H]1CN(c2nc(C3=CC(C)(C)OCC3)ccc2C(=O)NS(=O)(=O)c2cccc(N)n2)C(C)(C)C1 [Compound 1369, N-[(6-amino-2-pyridyl)sulfonyl]-6-(6,6-dimethyl-2,3-dihydropyran-4-yl)-2-[(4S)-2,2,4-trimethylpyrrolidin-1-yl]pyridine-3-carboxamide]
+++ (“+++” means <3 uM)	CCC1CC=C(c2ccc(C(=O)NS(=O)(=O)c3cccc(N)n3)c(Oc3c(C)cc(C)cc3C)n2)CC1 (centres unmarked) [Compound 1370, N-[(6-amino-2-pyridyl)sulfonyl]-6-(4-ethylcyclohexen-1-yl)-2-(2,4,6-trimethylphenoxy)pyridine-3-carboxamide]
+++ (“+++” means <3 uM)	C[C@@H]1CN(c2nc(C3=CCCN(C(=O)OC(C)(C)C)C3)ccc2C(=O)NS(=O)(=O)c2cccc(N)n2)C(C)(C)C1 [Compound 1371, tert-butyl 5-[5-[(6-amino-2-pyridyl)sulfonylcarbamoyl]-6-[(4S)-2,2,4-trimethylpyrrolidin-1-yl]-2-pyridyl]-3,6-dihydro-2H-pyridine-1-carboxylate]
+++ (“+++” means <3 uM)	CCOc1cccc2c1CN(Cc1c(C)cc(C)cc1C)[C@]2(C)C(=O)NS(=O)(=O)c1cccc(N)n1 [Compound 1372, (1S)—N-[(6-amino-2-pyridyl)sulfonyl]-4-ethoxy-1-methyl-2-[(2,4,6-trimethylphenyl)methyl]isoindoline-1-carboxamide]
